Experimental data reported in US6784155B1, “Inhibitor and stimulator of stem cell proliferation and uses thereof” (Wellstat Therapeutics Corporation, priority 1996, dated 2004).
Positions of bridges follow the written chain, without caps; N, C: chain ends. No end group written: not given here.

B1: MIP-1α: cytokine macrophage inflammatory protein 1-alpha, previously characterized stem cell inhibitor (protein, UniProt P10147 24-92, looked up)
C-C motif chemokine 3: SLAADTPTACCFSYTSRQIPQNFIADYFETSSQCSKPGVIFLTKRSRQVCADPSEEWVQKYVSDLELSA

Legend:
[1] = tested on: CFU-GEMM; experiment: CFU-GEMM cycling assay, human umbilical cord blood cells; format: cell-based; details: Table 32, cord blood mononuclear cells
Method: In order to investigate the ability of purified INPROL from porcine bone marrow to affect cycling on human progenitors, umbilical cord blood cells were obtained. Either the total mononuclear cell fraction obtained after separation on Ficoll or the CD34^+ fraction obtained after fractionation on anti-CD34 affinity columns (CellPro Inc.) was used. Cells were incubated for 48 hours in vitro in the presence of interleukin 3 (IL-3) and stem cell factor (SCF) (100 ng/ml each) in order to ensure that the early stem cells were in cycle. After this preincubation, cycling assays were conducted as described in Example 14 for the mouse except that CFU-GEMM (instead of CFU-MIX) were counted on Day 18 after plating.
The human cord blood CFU-GEMM cycling assay was conducted as in Example 19. Specifically, mononuclear cells were isolated from human umbilical cord blood cells and adjusted to 24×10^4 cells/ml in IMDM tissue culture medium supplemented with 10% FBS, 100 ng/ml kit ligand and 100 ng/ml human IL-3. The cells were incubated for 48 hours at 37° C.
After incubation, cells were washed and resuspended in serun-free NDM at a concentration of 10^6 cells/ml. One ml of cells was added to each of two polypropylene tubes per condition and the cycling assay conducted as in Example 24 for mouse bone marrow. After the Ara C incubation cells were washed with cold NDM and adjusted to 10,000 to 20,000 cells per 0.5 ml IMDM and mixed with 5 ml Methocult H4433 (Stem Cell Technologies). Alternatively, Methocult H4435 methylcellulose medium (Stem Cell Technologies) was used in which case the cell concentration was adjusted to 2500-5000 cells per 0.5 ml IMDM. The cells were plated as in Example 24 and CFU-GEMM colonies scored on days 14-18.

[2] = tested on: CFU-MIX; experiment: CFU-MIX cycling assay after in vivo injection into testosterone or 5FU treated mice; parameters: species or system mouse; details: Table 23, 5FU-pretreated animals, 0.5 ng i.v. per 20 gram mouse
Method: In order to test the ability of purified porcine hemoglobin chains to act in vivo, BDF1 mice were injected with testosterone propionate as described in Example 1. Twenty four hours later, mice received 500 ng of either pINPROL, porcine hemoglobin alpha chain (purified from peripheral red blood cells as in FIG. 21), porcine beta chain (purified from peripheral red blood cells as in FIG. 21) or the equivalent volume of carrier intravenously. Forty eight hours later the bone marrow from each mouse was harvested and the CFU-MIX assay conducted as described in Example 14.
To assess the stem cell inhibitory activity of peptide 43-55 in vivo, B6D2 F1 mice were pre-treated with testosterone propionate as described in Example 1 or with 5FU. Specifically, testosterone propionate (100 mg/kg body weight) was injected i.p. on Day 0 into mice. Alternatively, mice were injected on Day 0 with 5FU ([…] body weight).
(§1) 24 hours later (Day 1), varying doses of peptide 43-55 or vehicle were injected i.v. Bone marrow was harvested on Day 2 and the […] cycling assay conducted as in Example 14. Specifically, mice were sacrificed and single cell bone marrow suspensions prepared from the femurs. The cells were washed once and the concentration adjusted to 5×10^6 cells/ml in Fischer medium. For each test condition, one milliliter of cells was added to each of two polypropylene tubes. The tubes were incubated at 37° C. for 3 hours without (“Control”) or with (“Experimental”) the appropriate concentration of test substance. At the end of the incubation, 30 μg/ml of cytosine arabinoside (“Ara C” (Sigma)) was added to half of the tubes and the same volume of Fischer's medium was added to the others. The tubes were incubated for a further 1 hour at 37° C., after which they were placed on ice and washed twice with cold Fischer medium.
(§2) The cells were readjusted to 5×10^4-10^6/ml in Fischer's medium and 0.5 ml of cell suspension added to 5 ml of Methocult M3430 methylcellulose medium (Stem Cell Technologies, Vancouver, British Columbia). The mixture was vigorously mixed with a vortex and 1 ml was dispensed into each of five 35 mm dishes. The 35 mm dishes were in turn placed in a covered 150 mm dish with one open 35 mm dish containing sterile water. CFU-MIX colonies were counted with the use of an inverted microscope after 7 days of incubation at 37° C.
Differences in colony number between the tubes treated with medium versus the tubes treated with Ara C represent the percentage of cells in cycle under that condition according to the formula: […]

[3] = Distribution of ubiquitin fusion proteins between soluble fraction and precipitate of E. coli lysate (SDS-PAGE); format: physicochemical; details: after centrifugation of the bacterial lysate
Method: To obtain protein for assay, 100 ml starter cultures in 250 ml shake flasks were grown from single colonies by overnight incubation (16-20 hours) in 2×YT medium with ampicillin (100 μg/ml), neomycin (10 μg/ml) and 1% glucose. Shaker flask cultures were maintained at 30° C. and 250 rpm in a New Brunswick environmental shaker incubator. The next morning the culture was diluted to liter with medium Cells were induced by IPTG addition to 1 mM (final dilution) at OD600=0.5 and harvested at OD600=0.8 by centrifugation. The harvested cells were resuspended in hypotonic lysis buffer (100 μl of 50 mM Tris, pH 10.0). The bacterial cells were lysed by subjecting the suspension to three cycles of freeze-thaw (dry ice-ethanol bath for freezing and 60° C. for thawing). The suspension was then sonicated for 10 min and centrifuged at 12,000 g for 10 min. The resulting supernatant was designated as “S1”. The cell pellet was resuspended in 50 mM Tris, pH10 and 2×SDS tricine loading buffer (Novex, San Diego, Calif.) (1:1). The mixture was then heated at 95° C. for 15 min and centrifuged at 12,000 g for 10 min. The portion of the precipitate capable of being resolubilized in this manner was called “P1”. The portion of the precipitate derived from the remaining pellet was called “P2”. P2 was resuspended in loading buffer as for P1. Samples from S1, P1 and P2 were analyzed by SDS-PAGE. […]

[4] = tested on: CFU-MIX; experiment: CFU-MIX cycling assay in vitro (Ara C kill); format: cell-based, mouse; details: Table 19, 100 ng/ml
Method: A similar assay can be performed in vitro, using the cycling status of CFU-MIX instead of CFU-S. The assay is performed as described above for the CFU-S assay except that cytosine arabinoside (Ara C, 30 micrograms/ml) is used as the cycle-specific toxic agent instead of high dose tritiated thymidine (see B. I. Lord in Haemopoiesis—A Practical Approach, N. G. Testa and G. Molineux (Eds.), IRL Press 1993; Pragnell et al. in Culture of Hematopoietic Cells, R. I. Freshney, I. B. Pragnell and M. G. Freshney (Eds.), Wiley Liss 1994) and a mouse strain with high endogenous cycling rates (Balb/c) is used instead of testosterone-treated BDFI mice.
as §1, §2
Differences in colony number between the tubes treated with medium versus the tubes treated with Ara C represent the percentage of cells in cycle under that condition according to the formula:
a=Number of CFU-MIX from tube incubated with medium alone
b=Number of CFU-MIX from tube incubated with Ara C

[5] = tested on: CFU-S; experiment: CFU-S proliferation assay, 3H-Thymidine suicide method (bone marrow incubated with test fractions); format: cell-based, mouse; details: Table 8, bone marrow from testosterone treated mice
Method: For the detection of stem cells proliferation the number of CFU-S in S-phase of the cell cycle was measured by the ^3H-Thymidine “suicide” method (Becker et al., Blood 26:296-308, 1965).
Immature hematopoietic progenitors-Colony Forming Units in spleen (CFU-S)—can be detected in vivo by forming macroscopic colonies in the spleens of lethally irradiated mice, 8-12 days after the intravenous injection of hematopoietic cells (Till & McCulloch, 1961).
For the standard CFU-S proliferation assay the method of ^3H-Thymidine “suicide” is usually applied (Becker et al., 1965). The method is based on incorporation of radiolabelled Thymidine, (^3H-Thymidine) a precursor of DNA into cells during DNA synthesis. The CFU-S which are in S-phase of the cycle at the time of testing, are killed by the high radioactivity and therefore not able to form colonies in spleen.
The inhibitor testing can not be done with the bone marrow stem cell population from unstimulated animals, as far as the inhibitor only effects cycling CFU-S, which are as low as 7-10% of the total CFU-S population in the bone marrow of normal mice.
To stimulate CFU-S proliferation, phenylhydrazine (PHZ), or sublethal irradiation were used (Lord, 1976).
The TSP induced stimulation of CFU-S proliferation within 20-24 hours after injection and the effect could be seen for at least 7 days.
The procedure used for the screening of the fractions during purification of the Inhibitor was as follows:
Mice: BDF1 or CBF1 mice strains were used throughout all testing.
Donor mice were treated with a 10 mg/100 g dose of TSP by intraperitoneal injection of 0.2 ml/mouse in order to induce 30-35% of the CFU-S into S-phase.
Twenty-four hours later the bone marrow is taken from the femurs for the cell suspension preparation. […]
Recipient spleens are harvested on day 9-12 and fixed in Tellesnitsky's solution; the colonies are scored by eye score. The percentage of cells in S-phase are calculated using the formula. […]

[6] = tested on: HPP-CFC; experiment: HPP-CFC assay after 4 hour pre-incubation; format: cell-based, mouse; details: 200 ng/ml, day 14
Method: An in vitro assay for assessing murine reconstituting stem cells and early precursors is the high proliferative potential colony ([…]) assay; other related assays, e.g., CFU-A, CFU-GM, CFU-E, and CFU-GEMM, detect progressively restricted progenitor populations (M. Moore, Blood […]:2122-2128, 1991).
BDF1 mice were treated with 5-fluorouracil (200 mg/kg i.p.) before their bone marrow was assayed for HPP-CFC numbers. Cells were washed by centrifugation and incubated at densities of 10^6 to 5×10^6/ml in medium with either no added agent (Controls), pINPROL (25 ng/ml) or MIP-1α (200 ng/ml) for 4 hours. After incubation, cells were washed and plated in agar (0.3%) with 30% FCS and combined conditioned medium from 5637 and WEHI-3B cell lines (7.5% of each conditioned medium, as recommended by Sharp et al., 1991). Plating concentration was 5×10^4 cells/ml in 60 mm dishes.

[7] = tested on: mouse bone marrow cells; experiment: Colony formation after pre-incubation of bone marrow cells from 5FU-treated mice; format: cell-based; details: 4 hours pre-incubation
Method: The purpose of this experiment was to compare the inhibitory effects of pre-incubation with pINPROL and MIP-1α on mouse bone marrow cells in vitro.
The following procedure was used:
in vivo: BDF1 mice, 6-15 weeks of age, are injected with 200 mg/kg 5FU i.p. 48 hours before harvesting marrow from the femurs.
in vitro: A single cell pooled suspension is counted and 5×10^6 cells are incubated in a total of 2 mls with or without pINPROL or MIP-1α, with 5% horse serum, IMDM media with added L-glutamine, at 37° C. and 5% CO2 for 4 hours. The cells are then washed twice and recounted. They are plated in methylcellulose in the following final conditions:
20 ng/ml recombinant murine IL-3
Plates were incubated for 11 days at 37° C. and 5% CO2 in 100% humidity. Colonies more than 50 cells were counted.

Row | Molecule | % Kill ([1]; 1 ng/ml) [%] | % Kill ([1]; 10 ng) [%] | % Kill ([1]; 100 ng/ml) [%] | % Kill [2] [%] | fraction of bacterial lysate containing the peptide [3] | % Kill [4] [%] | % Kill ([5]; 40 ng/ml) [%] | % Kill ([5]; 200 ng/ml) [%] | % of Control [6] [%] | HPP-CFU [6] | Percent of Control ([7]; colonies after 11 days) [%] | Colony Number ([7]; colonies more than 50 cells after 11 days)
1 | Cys-Phe-Pro-His-Phe-Asp-Leu-Ser-His-Gly-Ser-Ala-Gln-Val-Cys (CFPHFDLSHGSAQVC; disulfide 1-15 (inferred)) [Cyclic Peptide 43-55, cyclic derivative of the 43-55 peptide] | 32 | 0 | 11 | 14 | contained in the soluble fraction | 0 |  |  |  |  |  | 
2 | Hbg: C4 Reverse-phase purified porcine hemoglobin beta chain (derived from 2X crystallized pig hemoglobin) |  |  |  |  |  |  | 7 | 25 |  |  |  | 
3 | B1 |  |  |  |  |  |  |  | 13 | 101 | 15.8 ± 0.9 | 114 | 35.25
